Our source for the Activity and MIC values is ChEMBL document CHEMBL1649177, “Further identification of CTX-M-2 extended-spectrum beta-lactamase in Pseudomonas aeruginosa” (2009).

In brackets after ≈: the same amount, converted by molar mass. Activity calls are given as the source filed them.

The subject of test [1] is Pseudomonas aeruginosa. Description: Antimicrobial activity against extended spectrum beta-lactamase CTX-M-2-producing Pseudomonas aeruginosa isolate P6208. It is filed as functional, organism-based.
In test [2] the test system is Pseudomonas aeruginosa. Description: Antimicrobial activity against extended spectrum beta-lactamase CTX-M-2-producing Pseudomonas aeruginosa isolate P6208 by Etest. It is filed as functional.

Consider `NCC[C@H](O)C(=O)N[C@@H]1C[C@H](N)[C@@H](O[C@H]2O[C@H](CN)[C@@H](O)[C@H](O)[C@H]2O)[C@H](O)[C@H]1O[C@H]1O[C@H](CO)[C@@H](O)[C@H](N)[C@H]1O`, for which the outcome in test [1] was Active.
For `NC[C@H]1O[C@H](O[C@H]2[C@H](O)[C@@H](O[C@H]3O[C@H](CO)[C@@H](O)[C@H](N)[C@H]3O)[C@H](N)C[C@@H]2N)[C@H](N)C[C@@H]1O`, the result in test [1] was Active.
On to `CO/N=C(\C(=O)N[C@@H]1C(=O)N2C(C(=O)[O-])=C(C[N+]3(C)CCCC3)CS[C@H]12)c1csc(N)n1` [CEFEPIME], for which the minimum inhibitory concentration (MIC) (in general, the smallest concentration in the dilution series that meets the test's criterion for growth inhibition) in test [2] is over 256 µg/mL.
Still for that read-out and setting: the figure for `CO/N=C(\C(=O)N[C@@H]1C(=O)N2C(C(=O)O)=C(COC(C)=O)CS[C@H]12)c1csc(N)n1` [CEFOTAXIME] is over 32 µg/mL; for `CC(C)(O/N=C(\C(=O)N[C@@H]1C(=O)N2C(C(=O)[O-])=C(C[n+]3ccccc3)CS[C@H]12)c1csc(N)n1)C(=O)O` [CEFTAZIDIME] it is 2 µg/mL (≈ 3.66 µM); for `C[C@@H](O)[C@H]1C(=O)N2C(C(=O)O)=C(SCCNC=N)C[C@H]12` [IMIPENEM ANHYDROUS] it is 1 µg/mL (≈ 3.34 µM).
On to COLISTIN, for which the result in test [1] was Active.
On to GENTAMICIN, for which the result in test [1] was Active.
